Measured values reported in patent US20100298141A1, “SUBSTITUTED PYRIDINE N-OXIDE HERBICIDES” (E. I. DU PONT DE NEMOURS AND COMPANY, priority 2007, published 2010).

Legend:
[1] = tested on: barnyardgrass; assay: Test A pre-/postemergence greenhouse test; assay type: in vivo, Echinochloa crus-galli; settings: for Barnyardgrass plant response rating: 0 to 100 scale; for Plant response rating, Barnyardgrass: 0 to 100 scale where 0 is no effect and 100 is complete control
Summary of the method: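 Visual injury ratings against untreated controls, taken roughly ten days after treatment in greenhouse. Plants were sprayed postemergence at one- to two-leaf stage (2–10 cm tall); at the same time, seeded loam/sand soil received a directed preemergence spray. Formulation: non-phytotoxic solvent mixture with surfactant.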

[2] = tested on: cocklebur; assay: Test C pre-/postemergence test; assay type: in vivo, Xanthium strumarium; settings: for Plant response rating, Cocklebur: 31 g ai/ha, scale 0 to 100 (0 no effect, 100 complete control)
Summary of the method: (§1)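 Compounds in a non-phytotoxic solvent with surfactant applied preemergence to seeded pots and, at the same time, postemergence to plants 2–18 cm tall (1- to 4-leaf stage). Paddy tests: pots flooded to 3 cm, compound applied into the water, depth held throughout.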

[3] = tested on: kochia; assay: Test C pre-/postemergence test; assay type: in vivo, Kochia scoparia; settings: for Plant response rating, Kochia: 31 g ai/ha, scale 0 to 100 (0 no effect, 100 complete control)
Summary of the method: as §1

[4] = tested on: velvetleaf; assay: Test C pre-/postemergence test; assay type: in vivo, Abutilon theophrasti; settings: for Plant response rating, Velvetleaf: 31 g ai/ha, scale 0 to 100 (0 no effect, 100 complete control)
Summary of the method: as §1

[5] = tested on: green foxtail; assay: Test F preemergence test; assay type: in vivo, Setaria viridis; settings: scale 0 to 100
Summary of the method: (§2)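 Test chemicals in a non-phytotoxic solvent mixture containing a surfactant were applied preemergence to sown seeds or postemergence to sugarcane plants. Treated plants and controls were held in a greenhouse for 14 to 21 days, then visually evaluated against controls.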

[6] = tested on: mustard; assay: Test F preemergence test; assay type: in vivo, Brassica nigra; settings: scale 0 to 100
Summary of the method: as §2

[7] = tested on: dallisgrass; assay: Test F preemergence test; assay type: in vivo, Paspalum dilatatum; settings: scale 0 to 100
Summary of the method: as §2

[8] = tested on: barnyardgrass; assay: Test F preemergence test; assay type: in vivo, Echinochloa crus-galli
Summary of the method: as §2

[9] = tested on: broadleaf signalgrass; assay: Test F preemergence test; assay type: in vivo, Brachiaria platyphylla; settings: scale 0 to 100
Summary of the method: as §2

[10] = tested on: Virginia dayflower; assay: Test F preemergence test; assay type: in vivo, Commelina virginica; settings: scale 0 to 100
Summary of the method: as §2

[11] = tested on: annual bluegrass; assay: Test F preemergence test; assay type: in vivo, Poa annua; settings: scale 0 to 100
Summary of the method: as §2

[12] = tested on: itchgrass; assay: Test F preemergence test; assay type: in vivo, Rottboellia cochinchinensis; settings: scale 0 to 100
Summary of the method: as §2

[13] = tested on: field bindweed; assay: Test F preemergence test; assay type: in vivo, Convolvulus arvensis; settings: scale 0 to 100
Summary of the method: as §2

[14] = tested on: common mallow; assay: Test F preemergence test; assay type: in vivo, Malva sylvestris; settings: scale 0 to 100
Summary of the method: as §2

[15] = Postemergence, 500 g ai/ha, 0 is no effect, 100 is complete control
[16] = Preemergence, 125 g ai/ha, 0 no effect, 100 complete control
[17] = 62 g ai/ha, Preemergence, scale 0 to 100
[18] = 125 g ai/ha, preemergence, scale 0 to 100
[19] = Preemergence, 31 g ai/ha, scale 0 to 100
[20] = 125 g ai/ha, preemergence, scale 0 (no effect) to 100 (complete control)
[21] = preemergence, 250 g ai/ha, scale 0 (no effect) to 100 (complete control)

Cn1nc(C(F)(F)F)c(CS(=O)(=O)c2cccc[n+]2[O-])c1OCC(F)(F)F [Compound 29]
10: Plant response rating (0 to 100), Cocklebur ([2]; Preemergence, 250 g ai/ha)
25: Plant response rating, Foxtail, Green ([5]; Preemergence, 16 g ai/ha)
75: Plant response rating, Foxtail, Green ([5]; Preemergence, 31 g ai/ha) | Plant response rating, Bluegrass ([11]; Preemergence, 31 g ai/ha) | Itchgrass plant response rating ([12]; 62 g ai/ha, Preemergence)
100: Barnyardgrass plant response rating [1, 16] | Plant response rating, Barnyardgrass ([1]; Preemergence, 500 g ai/ha) | Kochia plant response rating [3, 17] | Plant response rating, Kochia ([3]; Preemergence) | Velvetleaf plant response rating [4, 17] | Foxtail, Green plant response rating ([5]; 62 g ai/ha, Preemergence) | Foxtail, Green plant response rating ([5]; 125 g ai/ha, preemergence) | Black Mustard plant response rating ([6]; 62 g ai/ha, Preemergence) | Black Mustard plant response rating ([6]; 125 g ai/ha, preemergence) | Plant response rating, Black Mustard ([6]; Preemergence, 31 g ai/ha) | Dallisgrass plant response rating ([7]; 62 g ai/ha, Preemergence) | Dallisgrass plant response rating ([7]; 125 g ai/ha, preemergence) | Plant response rating, Dallisgrass ([7]; Preemergence, 31 g ai/ha) | Barnyardgrass plant response rating [8, 17] | Barnyardgrass plant response rating [8, 18] | Plant response rating, Barnyardgrass [8, 19] | Signalgrass plant response rating ([9]; 62 g ai/ha, Preemergence) | Signalgrass plant response rating ([9]; 125 g ai/ha, preemergence) | Dayflower plant response rating ([10]; 62 g ai/ha, Preemergence) | Dayflower plant response rating ([10]; 125 g ai/ha, preemergence) | Bluegrass plant response rating ([11]; 125 g ai/ha, preemergence) | Mallow plant response rating ([14]; 62 g ai/ha, Preemergence) | Mallow plant response rating ([14]; 125 g ai/ha, preemergence)
40: Plant response rating, Black Mustard ([6]; Preemergence, 16 g ai/ha)
80: Barnyardgrass plant response rating ([1]; Postemergence, 125 g ai/ha, 0 is no effect, 100 is complete control)
20: Plant response rating, Bluegrass ([11]; Preemergence, 16 g ai/ha)
95: Plant response rating, Dayflower ([10]; Preemergence, 31 g ai/ha) | Itchgrass plant response rating ([12]; 125 g ai/ha, preemergence)
50: Plant response rating, Barnyardgrass ([8]; Preemergence, 16 g ai/ha, scale 0 to 100) | Plant response rating, Signalgrass ([9]; Preemergence, 31 g ai/ha)
98: Bluegrass plant response rating ([11]; 62 g ai/ha, Preemergence)
0: Cocklebur plant response rating [2, 17] | Plant response rating, Cocklebur ([2]; Preemergence) | Cocklebur plant response rating ([2]; preemergence, 125 g ai/ha, scale 0 (no effect) to 100 (complete control)) | Plant response rating, Dallisgrass ([7]; Preemergence, 16 g ai/ha) | Plant response rating, Dayflower ([10]; Preemergence, 16 g ai/ha) | Plant response rating, Itchgrass ([12]; Preemergence, 16 g ai/ha) | Field Bindweed plant response rating ([13]; 62 g ai/ha, Preemergence) | Field Bindweed plant response rating ([13]; 125 g ai/ha, preemergence) | Plant response rating, Field Bindweed ([13]; Preemergence, 16 g ai/ha) | Plant response rating, Field Bindweed ([13]; Preemergence, 31 g ai/ha) | Plant response rating, Mallow ([14]; Preemergence, 16 g ai/ha) | Plant response rating, Mallow ([14]; Preemergence, 31 g ai/ha)
30: Plant response rating, Velvetleaf ([4]; Preemergence) | Plant response rating, Itchgrass ([12]; Preemergence, 31 g ai/ha)
90: Barnyardgrass plant response rating [1, 15]

CC(Oc1c(C[S+]([O-])c2cccc[n+]2[O-])c(C(F)(F)F)nn1C)C(F)(F)F (stereo not shown) [Compound 77]
35: Plant response rating, Itchgrass ([12]; Preemergence, 31 g ai/ha) | Field Bindweed plant response rating ([13]; 62 g ai/ha, Preemergence)
25: Plant response rating, Foxtail, Green ([5]; 16 g ai/ha, preemergence) | Plant response rating, Signalgrass ([9]; Preemergence, 31 g ai/ha)
90: Barnyardgrass plant response rating [1, 15] | Barnyardgrass plant response rating [1, 16] | Foxtail, Green plant response rating ([5]; 62 g ai/ha, Preemergence) | Plant response rating, Barnyardgrass [8, 19] | Signalgrass plant response rating ([9]; 125 g ai/ha, preemergence) | Mallow plant response rating ([14]; 62 g ai/ha, Preemergence) | Plant response rating, Mallow ([14]; Preemergence, 31 g ai/ha)
20: Plant response rating, Black Mustard ([6]; Preemergence, 31 g ai/ha)
98: Dallisgrass plant response rating ([7]; 62 g ai/ha, Preemergence)
80: Plant response rating, Barnyardgrass ([1]; Postemergence, 125 g ai/ha)
60: Plant response rating, Velvetleaf ([4]; Preemergence)
0: Cocklebur plant response rating [2, 20] | Plant response rating, Cocklebur ([2]; Preemergence) | Cocklebur plant response rating [2, 21] | Plant response rating, Black Mustard ([6]; 16 g ai/ha, preemergence) | Plant response rating, Dallisgrass ([7]; 16 g ai/ha, preemergence) | Plant response rating, Signalgrass ([9]; 16 g ai/ha, preemergence) | Plant response rating, Dayflower ([10]; 16 g ai/ha, preemergence) | Dayflower plant response rating ([10]; 62 g ai/ha, Preemergence) | Plant response rating, Dayflower ([10]; Preemergence, 31 g ai/ha) | Plant response rating, Bluegrass ([11]; 16 g ai/ha, preemergence) | Bluegrass plant response rating ([11]; 62 g ai/ha, Preemergence) | Plant response rating, Bluegrass ([11]; Preemergence, 31 g ai/ha) | Plant response rating, Itchgrass ([12]; 16 g ai/ha, preemergence) | Plant response rating, Field Bindweed ([13]; 16 g ai/ha, preemergence) | Plant response rating, Field Bindweed ([13]; Preemergence, 31 g ai/ha)
75: Plant response rating, Signalgrass ([9]; Preemergence, 62 g ai/ha) | Bluegrass plant response rating ([11]; 125 g ai/ha, preemergence)
30: Plant response rating, Dallisgrass ([7]; Preemergence, 31 g ai/ha)
100: Plant response rating, Barnyardgrass ([1]; Preemergence, 500 g ai/ha) | Kochia plant response rating [3, 17] | Kochia plant response rating [3, 20] | Plant response rating, Kochia ([3]; Preemergence) | Kochia plant response rating [3, 21] | Velvetleaf plant response rating [4, 17] | Velvetleaf plant response rating [4, 20] | Velvetleaf plant response rating [4, 21] | Foxtail, Green plant response rating ([5]; 125 g ai/ha, preemergence) | Black Mustard plant response rating ([6]; 125 g ai/ha, preemergence) | Dallisgrass plant response rating ([7]; 125 g ai/ha, preemergence) | Barnyardgrass plant response rating [8, 17] | Barnyardgrass plant response rating [8, 18] | Dayflower plant response rating ([10]; 125 g ai/ha, preemergence) | Mallow plant response rating ([14]; 125 g ai/ha, preemergence)
95: Itchgrass plant response rating ([12]; 125 g ai/ha, preemergence)
65: Plant response rating, Foxtail, Green ([5]; Preemergence, 31 g ai/ha) | Black Mustard plant response rating ([6]; 62 g ai/ha, Preemergence) | Plant response rating, Barnyardgrass ([8]; 16 g ai/ha, preemergence, scale 0 to 100 (0 no effect, 100 complete control)) | Itchgrass plant response rating ([12]; 62 g ai/ha, Preemergence) | Plant response rating, Mallow ([14]; 16 g ai/ha, preemergence)
70: Field Bindweed plant response rating ([13]; 125 g ai/ha, preemergence)
